# According to the NIST ThermoML archive (doi:10.1016/j.tca.2016.07.008):
# ± gives the expanded uncertainty stated by the source.
# Columns and labels:
# [1] = Crystal; DTA
# [2] = Molar enthalpy of transition or fusion; details: Crystal; DSC
Normal melting temperature [1],Molar enthalpy of transition or fusion [2],SMILES
248.20 ± 2 °C,45.4 ± 1 kJ/mol,O=C(N/N=C/c1ccccc1O)c1ccncc1 [N'-(2-hydroxybenzylidene)isonicotinohydrazide]
236.70 ± 2 °C,49.7 ± 1.1 kJ/mol,COc1cccc(/C=N/NC(=O)c2ccncc2)c1O [N'-(2-hydroxy-3-methoxybenzylidene)isonicotinohydrazide]
